Tests used:
Escherichia coli ON29 [1] = experiment: MBC/MFC and FMCI, planktonic cells; type: cell-based
Procedure: (§1) The MIC was determined by the micro broth dilution method in 96-well plates. […] A 10 μL containing 1×10^5 bacterial cells or 2×10^3 fungal cells were added to each well. The inoculated plates were covered with a lid, sealed with Parafilm, and incubated for 24 h at 37 °C with slight rocking on a tilting platform shaker. After incubation, the optical density at 600 nm (OD 600) of the cultures in each well was measured using an xMark™ Microplate Absorbance Spectrophotometer (Bio-Rad). The MIC was defined as the lowest concentration of antimicrobial compound at which the culture OD600 values was similar to uninoculated control wells. MBCs and MFCs were determined by transferring 100 μL from each well with no apparent growth onto appropriate agar plates, followed by incubation for 24 h at 37 °C.
(§2) The concentrations of antimicrobials used were based on previously determined MIC values. […] Microtiter plates were incubated at 37 °C for 24 h, and the results were analyzed. Each test was performed in duplicate and included a growth control without the addition of any antimicrobials.

S. epidermidis SK9 [2] = experiment: MBC/MFC and FMCI, planktonic cells; type: cell-based
Procedure: as §1, §2

Serratia marcescens SK2 [3] = experiment: MBC/MFC and FMCI, planktonic cells; type: cell-based
Procedure: as §1, §2

[4] = system: Staphylococcus epidermidis ON170; experiment: MBC/MFC and FMCI, planktonic cells; type: cell-based
Procedure: as §1, §2

Proteus mirabilis ON153 [5] = experiment: MBC/MFC and FMCI, planktonic cells; type: cell-based
Procedure: as §1, §2

[6] = system: Staphylococcus aureus ON89; experiment: MBC/MFC and FMCI, planktonic cells; type: cell-based
Procedure: as §1, §2

E. coli SK2 [7] = experiment: MBC/MFC and FMCI, planktonic cells; type: cell-based
Procedure: as §1, §2

MRSA ON184 [8] = experiment: MBC/MFC and FMCI, planktonic cells; type: cell-based, methicillin-resistant S. aureus
Procedure: as §1, §2

MRSA ON184 [9] = experiment: MIC and checkerboard (FICI), planktonic cells; type: cell-based, methicillin-resistant S. aureus
Procedure: as §1, §2

Candida albicans SK4b [10] = experiment: MBC/MFC and FMCI, planktonic cells; type: cell-based
Procedure: as §1, with “The MIC was defined as the lowest concentration of antimicrobial compound at which the culture OD600 values was similar to uninoculated control wells.” left out
as §2

[11] = system: Stenotrophomonas maltophilia ON17; experiment: MBC/MFC and FMCI, planktonic cells; type: cell-based
Procedure: as §1, with “The MIC was defined as the lowest concentration of antimicrobial compound at which the culture OD600 values was similar to uninoculated control wells.” left out
as §2

C. albicans ON47 [12] = experiment: MBC/MFC and FMCI, planktonic cells; type: cell-based
Procedure: as §1, with “The MIC was defined as the lowest concentration of antimicrobial compound at which the culture OD600 values was similar to uninoculated control wells.” left out
as §2

[13] = system: Pseudomonas aeruginosa SK1; experiment: MBC/MFC and FMCI, planktonic cells; type: cell-based
Procedure: as §1, with “The MIC was defined as the lowest concentration of antimicrobial compound at which the culture OD600 values was similar to uninoculated control wells.” left out
as §2

Escherichia coli ON29 [14] = experiment: MIC and checkerboard (FICI), planktonic cells; type: cell-based
Procedure: as §1, §2

Candida albicans SK4b [15] = experiment: MIC and checkerboard (FICI), planktonic cells; type: cell-based
Procedure: as §1, §2

S. epidermidis SK9 [16] = experiment: MIC and checkerboard (FICI), planktonic cells; type: cell-based
Procedure: as §1, §2

Serratia marcescens SK2 [17] = experiment: MIC and checkerboard (FICI), planktonic cells; type: cell-based
Procedure: as §1, §2

[18] = system: Stenotrophomonas maltophilia ON17; experiment: MIC and checkerboard (FICI), planktonic cells; type: cell-based
Procedure: as §1, §2

[19] = system: Staphylococcus epidermidis ON170; experiment: MIC and checkerboard (FICI), planktonic cells; type: cell-based
Procedure: as §1, §2

C. albicans ON47 [20] = experiment: MIC and checkerboard (FICI), planktonic cells; type: cell-based
Procedure: as §1, §2

Proteus mirabilis ON153 [21] = experiment: MIC and checkerboard (FICI), planktonic cells; type: cell-based
Procedure: as §1, §2

[22] = system: Staphylococcus aureus ON89; experiment: MIC and checkerboard (FICI), planktonic cells; type: cell-based
Procedure: as §1, §2

E. coli SK2 [23] = experiment: MIC and checkerboard (FICI), planktonic cells; type: cell-based
Procedure: as §1, §2

[24] = system: Pseudomonas aeruginosa SK1; experiment: MIC and checkerboard (FICI), planktonic cells; type: cell-based
Procedure: as §1, §2

12 test organisms = experiment: MBC/MFC and FMCI, planktonic cells, summary over strains; type: cell-based, bacterial and fungal organisms
Procedure: as §1, §2

[25] = system: bacterial and fungal biofilms; experiment: Rapid eradication of 48-h-old biofilms within 2 h exposure; type: cell-based, bacterial and fungal strains; conditions: at the MBEC alone, 48-h-old biofilm
Procedure: This example comprises performing biofilm growth as described above. After biofilm formation, control pegs (n=6) were removed and analyzed to determine the starting biofilm cell numbers via the drop dilution method. The 48-h old biofilms on the pegs were exposed to different concentrations of test antimicrobials, dissolved in an appropriate growth medium, for 2 hours to evaluate their efficacy alone and in combination. […] Following treatment, pegs were washed twice with sterile PBS, and the biofilm cells were dislodged into recovery medium and enumerated as described above.

CCO [ET, ethanol]
MBC/MFC in combination (Escherichia coli ON29 [1]; TE + ET in combination): 6.25%
MBC/MFC (Escherichia coli ON29 [1]; alone): 25%
MBC/MFC in combination (S. epidermidis SK9 [2]; TE + ET in combination): 3.125%
MBC/MFC (S. epidermidis SK9 [2]; alone): 12.5%
MBC/MFC in combination (Serratia marcescens SK2 [3]; TE + ET in combination): 6.25%
MBC/MFC (Serratia marcescens SK2 [3]; alone): 12.5%
MBC/MFC in combination ([4]; TE + ET in combination): 1.6%
MBC/MFC ([4]; alone): 6.25%
MBC/MFC in combination (Proteus mirabilis ON153 [5]; TE + ET in combination): 6.25%
MBC/MFC (Proteus mirabilis ON153 [5]; alone): 12.5%
MBC/MFC in combination ([6]; TE + ET in combination): 3.125%
MBC/MFC ([6]; alone): 25%
MBC/MFC in combination (E. coli SK2 [7]; TE + ET in combination): 6.25%
MBC/MFC (E. coli SK2 [7]; alone): 25%
MBC/MFC in combination (MRSA ON184 [8]; TE + ET in combination): 3.125%
MBC/MFC (MRSA ON184 [8]; alone): 25%
MIC in combination (MRSA ON184 [9]; TE + ET in combination): 0.4%
MIC (MRSA ON184 [9]; alone, 24 h, 37 °C): 6.25%
MBC/MFC in combination (Candida albicans SK4b [10]; TE + ET in combination): 3.125%
MBC/MFC (Candida albicans SK4b [10]; alone): 6.25%
MBC/MFC in combination ([11]; TE + ET in combination): 1.6%
MBC/MFC ([11]; alone): 6.25%
MBC/MFC in combination (C. albicans ON47 [12]; TE + ET in combination): 3.125%
MBC/MFC (C. albicans ON47 [12]; alone): 6.25%
MBC/MFC in combination ([13]; TE + ET in combination): 6.25%
MBC/MFC ([13]; alone): 12.5%
MIC in combination (Escherichia coli ON29 [14]; TE + ET in combination): 3.125%
MIC (Escherichia coli ON29 [14]; alone, 24 h, 37 °C): 12.5%
MIC in combination (Candida albicans SK4b [15]; TE + ET in combination): 1.6%
MIC (Candida albicans SK4b [15]; alone, 24 h, 37 °C): 6.25%
MIC in combination (S. epidermidis SK9 [16]; TE + ET in combination): 0.4%
MIC (S. epidermidis SK9 [16]; alone, 24 h, 37 °C): 6.25%
MIC in combination (Serratia marcescens SK2 [17]; TE + ET in combination): 3.125%
MIC (Serratia marcescens SK2 [17]; alone, 24 h, 37 °C): 6.25%
MIC in combination ([18]; TE + ET in combination): 0.4%
MIC ([18]; alone, 24 h, 37 °C): 6.25%
MIC in combination ([19]; TE + ET in combination): 0.4%
MIC ([19]; alone, 24 h, 37 °C): 3.125%
MIC in combination (C. albicans ON47 [20]; TE + ET in combination): 0.4%
MIC (C. albicans ON47 [20]; alone, 24 h, 37 °C): 6.25%
MIC in combination (Proteus mirabilis ON153 [21]; TE + ET in combination): 1.6%
MIC (Proteus mirabilis ON153 [21]; alone, 24 h, 37 °C): 6.25%
MIC in combination ([22]; TE + ET in combination): 0.4%
MIC ([22]; alone, 24 h, 37 °C): 6.25%
MIC in combination (E. coli SK2 [23]; TE + ET in combination): 6.25%
MIC (E. coli SK2 [23]; alone, 24 h, 37 °C): 12.5%
MIC in combination ([24]; TE + ET in combination): 3.125%
MIC ([24]; alone, 24 h, 37 °C): 3.125%
microbicidal activity (12 test organisms): broad-spectrum microbicidal activity
biofilm eradication [25]: failed to eradicate the preformed biofilms
